Experimental data: patent publication US6939863B2, “Prevention of atherosclerosis and restenosis” (priority 2002, dated 2005)

What was measured:
[1] = system: restenosis; conditions: summary table; cited from earlier work; also: key: '+' represents the ability; a '−' represents the inability of conversion from a non-contracile phenotype to a contractile phenotype in an in vitro condition; A '↓' represents decrease; a '?' represents no data is available
[2] = system: endothelial cells; conditions: summary table; cited from earlier work; also: key: '+' represents the ability; a '−' represents the inability of conversion from a non-contracile phenotype to a contractile phenotype in an in vitro condition; A '↓' represents decrease; a '?' represents no data is available
[3] = summary table; cited from earlier work
[4] = system: restenosis; conditions: summary table; cited from earlier work; remark: listed apart in the source; also: key: '+' represents the ability; a '−' represents the inability of conversion from a non-contracile phenotype to a contractile phenotype in an in vitro condition; A '↓' represents decrease; a '?' represents no data is available
[5] = system: smooth muscle cells; conditions: conversion from non-contractile to contractile phenotype in vitro; cited from earlier work
[6] = summary table; cited from earlier work; remark: listed apart in the source
[7] = system: restenosis; conditions: summary table; cited from earlier work; remark: listed apart in the source; also: key: '+' represents the ability; a '−' represents the inability of conversion from a non-contracile phenotype to a contractile phenotype in an in vitro condition; A '↓' represents decrease; a '?' represents no data is available
[8] = system: rat vascular smooth muscle cells; test: [methyl-3H]thymidine incorporation into VSMCs; format: cell-based; conditions: concentration-dependent
Procedure: (§1) Rat vascular smooth muscle cells (VSMCs) (passages 5-10) were prepared from Sprague-Dawley rats and cultured in Dulbecco's modified Eagle's medium (DMEM) supplemented with 10% fetal bovine serum (FBS) as previously described (Kirschenlohr et al, in “Human Cell Culture Protocols”, New Jersey, Humana Press Inc, 1996, pp. 318-335). Human endothelial cells from umbilical veins were prepared as described (Morgan, in “Human Cell Culture Protocols”, New Jersey, Humana Press Inc, 1996, pp. 101-152)
(§2) Rat vascular smooth muscle cells and human endothelial cells were plated at a density of 10,000 cells per square centimeter in 24-well plates. After 24 hours, cells at 70-80% confluency were treated with propylthiouracil dissolved in 100% dimethylsulfoxide (DMSO) at final concentrations of from 0.05 millimolar to 15 millimolar, or with methimazole (Sigma, St. Louis, Mo.) dissolved in water at the concentrations of from 0.01 millimolar to 1 millimolar for 24-72 hours. Cell numbers were visually counted using a hemocytometer. For the thymidine incorporation study, cells were deprived of serum for 36 hours and labeled with [methyl-^3H]thymidine at […] per milliliter for 12-24 hours after synchronization. Thymidine incorporation was then measured (Newby and George, 1996, Curr. Opin. Cardiol., 11:547). Effects of propylthiouracil and methimazole on the number of vascular smooth muscle cells and human endothelial cells and thymidine incorporation by vascular smooth muscle cells were each expressed as a percentage of the number and thymidine incorporation of control cells maintained in medium containing 0.1% DMSO as vehicle.

[9] = system: rat vascular smooth muscle cells; test: Vascular smooth muscle cell proliferation (cell number); format: cell-based; conditions: concentration-dependent; PTU 0.05-5 millimolar, methimazole 0.01-1 millimolar
Procedure: as §1, §2

[10] = system: collagen expression; conditions: summary table; cited from earlier work

Compound | Effect on restenosis, Human [1] | Endothelial cellular function [2] | Anti-coagulation [3] | Effect on animal models of restenosis, Pig [4] | Phenotype change [5] | Anti-inflammation [6] | Effect on animal models of restenosis, Rat [7] | Inhibition of thymidine incorporation into VSMCs [8] | Inhibition of growth/proliferation of VSMCs [9] | Collagen expression [10]
Heparin | − | − | + | + | − | − | + |  |  | 
Cn1cc[nH]c1=S [methimazole] |  |  |  |  |  |  |  | but not methimazole (MMI), significantly inhibited | but not methimazole (MMI), significantly inhibited | 
CC1=C(/C=C/C(C)=C/C=C/C(C)=C/C(=O)O)C(C)(C)CCC1 [All-trans retinoic acid] |  | + | − |  | + | − | + |  |  | ↑
CC(=O)O[C@H]1C(=O)[C@@]2(C)[C@H]([C@H](OC(=O)c3ccccc3)[C@]3(O)C[C@H](OC(=O)[C@H](O)[C@@H](NC(=O)c4ccccc4)c4ccccc4)C(C)=C1C3(C)C)[C@]1(OC(C)=O)CO[C@@H]1C[C@@H]2O [Paclitaxel] | + | − |  | + |  |  | + |  |  | 
